For orientation: EC50 means the concentration giving half of the maximal effect. Low values mean a more potent agent, high ones a less potent agent.

This assay concerns the target T1, Ceramide glucosyltransferase (Homo sapiens, UniProt Q16739).
T1 sequence (Q16739 whole entry): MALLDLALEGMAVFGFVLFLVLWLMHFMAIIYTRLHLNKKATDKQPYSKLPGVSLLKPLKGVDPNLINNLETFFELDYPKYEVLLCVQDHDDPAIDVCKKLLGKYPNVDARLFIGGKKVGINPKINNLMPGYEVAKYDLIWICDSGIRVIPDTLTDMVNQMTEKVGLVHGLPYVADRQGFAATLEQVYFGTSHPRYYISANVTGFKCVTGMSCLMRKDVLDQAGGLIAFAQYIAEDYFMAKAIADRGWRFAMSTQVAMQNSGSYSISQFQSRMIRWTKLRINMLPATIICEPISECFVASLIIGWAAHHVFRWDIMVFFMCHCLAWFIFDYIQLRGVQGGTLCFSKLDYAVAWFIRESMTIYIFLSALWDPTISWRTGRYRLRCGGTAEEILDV
Briefly: UDP-Glo Glucosylceramide Synthase Biochemical Assay. As to the method: Using Promega's UDP-Glo™ Glycosyltransferase assay kit (Promega Corporation, Madison, WI, USA (Promega)), GCS activity was indirectly measured by detecting the amount of UDP produced. An aliquot of GCS enzyme (1.5 μg crude golgi preparation, total protein) and titrated test compound were aliquoted to each well and incubated for 30 minutes at room temperature. Substrate mixture was prepared by mixing C6 ceramide (Avanti Polar Lipids, Alabaster, AL USA (Avanti)) (micelles prepared at 0.6 mM in 0.6 mM DOPC) and UDP-glucose (20 μ.M; Promega), at concentrations equivalent to 2×Km, in assay buffer (25 mM HEPES (pH 7.5), 50 mM KCl, 5 mM MgCl2). An equivalent volume of substrate mixture was then added to each well. Following a 20 h incubation at room temperature to allow for GCS turnover of substrate, an equal volume of UDP detection reagent (Promega) was added to each well and incubated for an additional 75 minutes at room temperature to simultaneously convert the accumulated UDP product into ATP and generate light in a luciferase reaction.

Regarding `CCCOc1ccccc1-c1cccc2cc(C(=O)Nc3cccnc3)oc12` [US20230391758, Compound 10], a half-maximal effect (EC50) was put at 1.8 nM.

The values above are taken from BindingDB's records for patent US20230391758 (Merck Sharp & Dohme, 2023).
